What was measured:
[1] = target: T1, Type-1 angiotensin II receptor (Homo sapiens, UniProt P30556); assay: Binding affinity to AT1R (unknown origin) assessed as inhibition constant
T1 sequence (P30556 whole entry): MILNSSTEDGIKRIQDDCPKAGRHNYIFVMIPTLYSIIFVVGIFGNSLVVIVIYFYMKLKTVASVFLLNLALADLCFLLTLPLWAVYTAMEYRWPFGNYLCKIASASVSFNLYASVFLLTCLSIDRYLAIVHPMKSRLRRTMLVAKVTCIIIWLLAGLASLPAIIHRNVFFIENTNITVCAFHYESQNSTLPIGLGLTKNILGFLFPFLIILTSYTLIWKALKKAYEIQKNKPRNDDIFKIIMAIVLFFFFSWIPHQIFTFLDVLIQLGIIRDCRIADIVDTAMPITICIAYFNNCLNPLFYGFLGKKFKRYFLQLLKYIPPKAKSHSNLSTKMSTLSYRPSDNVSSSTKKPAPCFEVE

[2] = target: Sphingosine 1-phosphate receptor 2 (Homo sapiens, UniProt O95136); assay: Agonist activity at S1P2 (unknown origin) expressed in CHO cells assessed as Ca2+ activation; assay type: functional, cell-based
[3] = target: Phosphatidylinositol 4,5-bisphosphate 3-kinase catalytic subunit alpha isoform (Homo sapiens, UniProt P42336); assay: Inhibition of PI3Kalpha (unknown origin) by kinase profiling assay
Chain of Phosphatidylinositol 4,5-bisphosphate 3-kinase catalytic subunit alpha isoform (P42336 whole entry, canonical isoform): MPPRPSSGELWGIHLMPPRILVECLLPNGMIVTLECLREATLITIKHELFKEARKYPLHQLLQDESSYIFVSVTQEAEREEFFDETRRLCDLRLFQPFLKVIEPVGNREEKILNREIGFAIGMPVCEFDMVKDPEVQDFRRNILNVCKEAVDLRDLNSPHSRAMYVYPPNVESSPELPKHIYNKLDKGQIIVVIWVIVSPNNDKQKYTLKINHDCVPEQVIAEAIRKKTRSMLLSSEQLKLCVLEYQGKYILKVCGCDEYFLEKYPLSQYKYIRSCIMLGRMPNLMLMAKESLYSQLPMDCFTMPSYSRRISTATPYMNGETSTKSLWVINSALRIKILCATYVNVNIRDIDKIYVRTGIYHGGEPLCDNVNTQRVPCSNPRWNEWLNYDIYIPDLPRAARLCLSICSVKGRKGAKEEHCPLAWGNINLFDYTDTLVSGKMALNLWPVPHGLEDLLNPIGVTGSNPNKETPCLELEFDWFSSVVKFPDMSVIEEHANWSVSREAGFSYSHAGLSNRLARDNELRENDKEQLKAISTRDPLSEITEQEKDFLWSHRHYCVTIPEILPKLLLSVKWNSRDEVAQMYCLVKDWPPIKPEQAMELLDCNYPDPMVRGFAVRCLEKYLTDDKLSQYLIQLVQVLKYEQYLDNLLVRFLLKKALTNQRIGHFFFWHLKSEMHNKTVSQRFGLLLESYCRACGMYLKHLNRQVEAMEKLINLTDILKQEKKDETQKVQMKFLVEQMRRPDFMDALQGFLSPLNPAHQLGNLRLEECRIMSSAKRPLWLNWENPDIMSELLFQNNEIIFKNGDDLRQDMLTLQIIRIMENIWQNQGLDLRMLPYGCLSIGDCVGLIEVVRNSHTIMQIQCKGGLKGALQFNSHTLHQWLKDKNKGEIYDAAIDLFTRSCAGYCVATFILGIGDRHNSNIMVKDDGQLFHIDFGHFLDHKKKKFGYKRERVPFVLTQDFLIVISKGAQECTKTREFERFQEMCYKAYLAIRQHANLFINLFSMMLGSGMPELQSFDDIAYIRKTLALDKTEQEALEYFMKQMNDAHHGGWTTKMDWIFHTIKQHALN

fMet-Leu-Phe receptor = target: T2, fMet-Leu-Phe receptor (Homo sapiens, UniProt P21462); assay: Inhibition of human FPR expressed in human U-937 cells by fluorescence based ligand binding assay; assay type: cell-based
T2 sequence (P21462 whole entry): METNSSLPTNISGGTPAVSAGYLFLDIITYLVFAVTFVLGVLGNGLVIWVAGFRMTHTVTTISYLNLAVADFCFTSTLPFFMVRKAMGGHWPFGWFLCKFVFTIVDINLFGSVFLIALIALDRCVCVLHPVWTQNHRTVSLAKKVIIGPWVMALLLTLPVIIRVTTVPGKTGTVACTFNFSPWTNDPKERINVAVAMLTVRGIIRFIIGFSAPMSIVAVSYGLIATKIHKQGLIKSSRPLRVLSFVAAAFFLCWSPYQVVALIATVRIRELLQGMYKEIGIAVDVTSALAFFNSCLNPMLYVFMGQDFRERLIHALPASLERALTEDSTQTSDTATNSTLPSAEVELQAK

[4] = target: Vascular endothelial growth factor receptor 2 (Homo sapiens, UniProt P35968); assay: Inhibition of VEGFR2 (unknown origin)
Chain of Vascular endothelial growth factor receptor 2 (P35968 whole entry): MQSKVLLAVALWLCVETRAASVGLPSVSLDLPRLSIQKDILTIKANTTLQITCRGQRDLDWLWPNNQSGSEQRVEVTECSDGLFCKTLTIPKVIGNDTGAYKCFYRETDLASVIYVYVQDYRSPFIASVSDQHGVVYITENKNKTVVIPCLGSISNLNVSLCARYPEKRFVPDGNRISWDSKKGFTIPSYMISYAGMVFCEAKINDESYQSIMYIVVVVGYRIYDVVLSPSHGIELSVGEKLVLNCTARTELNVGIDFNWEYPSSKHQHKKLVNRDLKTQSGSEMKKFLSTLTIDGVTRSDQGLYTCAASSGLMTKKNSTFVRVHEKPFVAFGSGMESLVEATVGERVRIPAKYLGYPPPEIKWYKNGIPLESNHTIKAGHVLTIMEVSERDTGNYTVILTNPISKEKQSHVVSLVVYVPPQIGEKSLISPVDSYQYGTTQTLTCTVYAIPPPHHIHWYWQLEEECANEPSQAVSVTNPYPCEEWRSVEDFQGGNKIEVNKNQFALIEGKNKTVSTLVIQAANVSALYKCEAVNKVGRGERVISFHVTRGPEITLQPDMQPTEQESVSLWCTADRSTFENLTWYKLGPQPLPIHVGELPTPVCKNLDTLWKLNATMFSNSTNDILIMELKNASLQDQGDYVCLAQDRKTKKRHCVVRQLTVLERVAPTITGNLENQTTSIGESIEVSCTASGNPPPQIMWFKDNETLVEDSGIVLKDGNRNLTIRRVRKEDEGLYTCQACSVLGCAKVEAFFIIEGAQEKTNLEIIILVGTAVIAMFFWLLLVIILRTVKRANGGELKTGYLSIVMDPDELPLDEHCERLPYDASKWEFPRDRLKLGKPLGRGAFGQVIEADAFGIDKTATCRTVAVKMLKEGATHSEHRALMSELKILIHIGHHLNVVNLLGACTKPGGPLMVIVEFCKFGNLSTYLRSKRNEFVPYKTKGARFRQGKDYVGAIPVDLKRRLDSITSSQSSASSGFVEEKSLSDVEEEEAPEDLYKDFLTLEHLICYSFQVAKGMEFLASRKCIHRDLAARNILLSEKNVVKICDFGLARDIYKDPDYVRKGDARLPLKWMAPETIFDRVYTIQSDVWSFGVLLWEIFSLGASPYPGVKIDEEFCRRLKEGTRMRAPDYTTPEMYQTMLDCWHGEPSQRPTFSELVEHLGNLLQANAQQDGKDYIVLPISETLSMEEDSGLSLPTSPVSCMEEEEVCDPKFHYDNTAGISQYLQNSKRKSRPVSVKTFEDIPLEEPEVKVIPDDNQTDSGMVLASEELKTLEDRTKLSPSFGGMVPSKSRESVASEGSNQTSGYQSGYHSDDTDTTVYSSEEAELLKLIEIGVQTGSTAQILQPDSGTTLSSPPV

[5] = target: T3, Platelet-derived growth factor receptor beta (Homo sapiens, UniProt P09619); assay: Inhibition of PDGFRbeta (unknown origin) by enzymatic assay
T3 sequence (P09619 whole entry): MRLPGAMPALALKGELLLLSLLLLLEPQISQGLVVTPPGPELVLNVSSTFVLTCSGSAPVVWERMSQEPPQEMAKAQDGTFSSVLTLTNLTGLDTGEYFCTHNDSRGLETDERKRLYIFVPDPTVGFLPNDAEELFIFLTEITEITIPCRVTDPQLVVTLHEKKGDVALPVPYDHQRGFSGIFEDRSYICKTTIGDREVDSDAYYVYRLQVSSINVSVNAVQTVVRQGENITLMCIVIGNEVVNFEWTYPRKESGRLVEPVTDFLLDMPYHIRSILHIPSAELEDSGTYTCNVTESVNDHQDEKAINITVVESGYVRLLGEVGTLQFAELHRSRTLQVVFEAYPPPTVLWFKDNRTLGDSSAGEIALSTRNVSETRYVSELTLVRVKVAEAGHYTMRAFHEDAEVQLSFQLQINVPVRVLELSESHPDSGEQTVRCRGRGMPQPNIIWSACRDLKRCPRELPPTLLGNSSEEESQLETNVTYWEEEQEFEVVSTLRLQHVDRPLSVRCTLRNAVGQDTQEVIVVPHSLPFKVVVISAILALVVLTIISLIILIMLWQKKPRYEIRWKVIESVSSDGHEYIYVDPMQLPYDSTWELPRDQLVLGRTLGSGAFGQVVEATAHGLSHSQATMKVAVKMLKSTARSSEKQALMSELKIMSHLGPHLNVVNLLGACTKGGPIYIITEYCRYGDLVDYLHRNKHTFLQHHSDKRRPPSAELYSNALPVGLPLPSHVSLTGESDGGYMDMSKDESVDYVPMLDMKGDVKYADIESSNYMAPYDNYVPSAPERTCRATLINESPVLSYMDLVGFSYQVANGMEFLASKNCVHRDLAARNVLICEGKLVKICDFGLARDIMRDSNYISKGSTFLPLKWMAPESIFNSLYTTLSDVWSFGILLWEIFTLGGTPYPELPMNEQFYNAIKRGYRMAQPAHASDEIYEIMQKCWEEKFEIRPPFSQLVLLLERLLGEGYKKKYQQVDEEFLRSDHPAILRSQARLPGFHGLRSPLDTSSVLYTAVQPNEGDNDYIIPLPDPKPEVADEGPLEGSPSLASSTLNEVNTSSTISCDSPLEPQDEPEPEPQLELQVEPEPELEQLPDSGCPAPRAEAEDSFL

[6] = AUC in Sprague-Dawley rat at 10 mg/kg, po; assay type: ADME, organism-based; settings: in vivo
[7] = target: T3, Platelet-derived growth factor receptor beta; assay: Inhibition of glutathione S-transferase fused PDGFbetaR (unknown origin) in 3T3 cells; assay type: cell-based
[8] = Metabolic stability in Sprague-Dawley rat assessed as half life; assay type: ADME
[9] = Half life in rat; assay type: ADME; settings: in vivo
[10] = target: Lysophosphatidic acid receptor 1 (Homo sapiens, UniProt Q92633); assay: Antagonist activity at human LPA1 receptor expressed in CHO cells assessed as inhibition of LPA-induced calcium mobilization pretreated for 15 mins followed by LPA stimulation by FLIPR analysis; assay type: functional, cell-based
Chain of Lysophosphatidic acid receptor 1 (Q92633 whole entry): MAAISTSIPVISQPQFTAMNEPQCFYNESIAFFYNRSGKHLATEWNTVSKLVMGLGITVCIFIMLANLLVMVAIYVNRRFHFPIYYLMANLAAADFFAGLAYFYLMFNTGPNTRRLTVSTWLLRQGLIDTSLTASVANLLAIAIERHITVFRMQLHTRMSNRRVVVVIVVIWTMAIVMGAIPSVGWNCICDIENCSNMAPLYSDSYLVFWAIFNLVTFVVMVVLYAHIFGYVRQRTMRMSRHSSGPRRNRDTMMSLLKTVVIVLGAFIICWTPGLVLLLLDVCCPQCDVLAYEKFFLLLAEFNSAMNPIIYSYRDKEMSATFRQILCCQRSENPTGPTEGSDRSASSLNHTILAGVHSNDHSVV

in vivo = settings: rat, po, 5 mg/kg
Description: Half life in rat at 5 mg/kg, po

[11] = Oral bioavailability in rat at 5 mg/kg; assay type: ADME, organism-based; settings: in vivo
[12] = Clearance in rat at 1 mg/kg, iv; assay type: ADME, organism-based; settings: in vivo
[13] = target: Voltage-gated inwardly rectifying potassium channel KCNH2 (Homo sapiens, UniProt Q12809); assay: Inhibition of hERG
Chain of Voltage-gated inwardly rectifying potassium channel KCNH2 (Q12809 whole entry): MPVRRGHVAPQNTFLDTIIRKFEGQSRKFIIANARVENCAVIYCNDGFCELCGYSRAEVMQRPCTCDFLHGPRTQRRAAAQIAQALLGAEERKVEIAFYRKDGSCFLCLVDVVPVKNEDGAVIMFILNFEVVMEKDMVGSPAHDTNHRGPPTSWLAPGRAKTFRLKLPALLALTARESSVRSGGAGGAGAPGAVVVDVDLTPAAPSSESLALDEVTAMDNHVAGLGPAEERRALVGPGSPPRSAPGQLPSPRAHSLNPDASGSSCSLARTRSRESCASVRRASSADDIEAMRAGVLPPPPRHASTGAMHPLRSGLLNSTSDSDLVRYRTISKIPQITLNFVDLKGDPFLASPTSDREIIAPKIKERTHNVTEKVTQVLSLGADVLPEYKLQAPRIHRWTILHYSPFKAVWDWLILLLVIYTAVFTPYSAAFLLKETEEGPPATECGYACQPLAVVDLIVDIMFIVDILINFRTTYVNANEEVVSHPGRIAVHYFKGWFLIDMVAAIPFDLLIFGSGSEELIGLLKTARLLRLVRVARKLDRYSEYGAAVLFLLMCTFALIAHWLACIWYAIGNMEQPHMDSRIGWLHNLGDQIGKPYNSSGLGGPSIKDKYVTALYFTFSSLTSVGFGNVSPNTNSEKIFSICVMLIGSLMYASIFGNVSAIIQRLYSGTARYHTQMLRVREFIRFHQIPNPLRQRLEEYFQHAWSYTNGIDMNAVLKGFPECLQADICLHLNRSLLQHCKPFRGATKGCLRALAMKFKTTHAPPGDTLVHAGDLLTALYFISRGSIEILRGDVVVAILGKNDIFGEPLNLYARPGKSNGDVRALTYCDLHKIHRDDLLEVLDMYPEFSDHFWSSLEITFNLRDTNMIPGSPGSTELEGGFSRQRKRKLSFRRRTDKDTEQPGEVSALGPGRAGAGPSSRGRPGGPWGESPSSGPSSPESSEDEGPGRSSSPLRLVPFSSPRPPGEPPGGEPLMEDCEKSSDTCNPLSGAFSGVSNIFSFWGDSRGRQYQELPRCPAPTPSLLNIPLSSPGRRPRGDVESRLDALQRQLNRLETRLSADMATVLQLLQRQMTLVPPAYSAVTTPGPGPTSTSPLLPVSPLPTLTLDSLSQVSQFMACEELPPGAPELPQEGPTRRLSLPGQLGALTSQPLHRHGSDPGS

[14] = target: T3, Platelet-derived growth factor receptor beta; assay: Inhibition of PDGFRbeta (unknown origin) by DiscoverX KINOMEscan assay
[15] = Oral bioavailability in rat; assay type: ADME, organism-based; settings: in vivo
[16] = Clearance in rat at 5 mg/kg, iv; assay type: ADME, organism-based; settings: in vivo

SMILES: CCCCOC(=O)NS(=O)(=O)c1sc(CC(C)C)cc1-c1ccc(Cn2c(CC)nc3c(C)cc(C)nc32)cc1
- Ki [1]: 3.9 nM

SMILES: Cc1cc(NNC(=O)Nc2cc(Cl)nc(Cl)c2)ncc1-c1cn(C)nc1C
- IC50 [2]: > 1400 nM

SMILES: O=S(=O)(Nc1cncc(-c2ccc3nccc(-c4ccncc4)c3c2)c1)c1ccccc1F
- IC50 [3]: 0.1 nM

SMILES: Cc1c(-c2ccccc2)nc2ccc(Br)cc2c1C(=O)NC[C@H](CC(=O)O)c1ccccc1Cl
- IC50 (fMet-Leu-Phe receptor): 32 nM

SMILES: O=C1NC(=O)C(Cc2ccc3nccc(-c4ccncc4)c3c2)S1 (stereo not given)
- IC50 [3]: 2 nM

SMILES: COc1cc2c(Oc3ccc4[nH]c(C)cc4c3F)ccnc2cc1OCC1(N)CC1
- IC50 [4]: < 1 nM

SMILES: COC(=O)c1ccc2c(c1)NC(=O)/C2=C(\Nc1ccc2c(c1)CCN2C(=O)CN1CCOCC1)c1ccccc1
- IC50 [5]: 25 nM
- AUC [6]: 6406 h/ng/mL
- IC50 [4]: 110 nM
- IC50 [7]: 100 nM
- half-life [8]: 4.8 h
- half-life [9]: 4.8 h

SMILES: Cc1noc(-c2ccc(-c3ccc(C4(C(=O)O)CC4)cc3)cc2)c1NC(=O)O[C@H](C)c1ccccc1 [BMS-986020]
- EC50 [10]: 6.7 nM

SMILES: O=c1nc(OC[C@@H]2COCCO2)cc2n1CCc1cc(C#CC3CC3)ccc1-2 [GLPG-1205]
- half-life (in vivo): 1.9 h
- bioavailability [11]: > 100%
- clearance [12]: 15 mL/min/kg

SMILES: COC(=O)c1ccc2c(c1)NC(=O)/C2=C(\Nc1ccc(N(C)C(=O)CN2CCN(C)CC2)cc1)c1ccccc1 [NINTEDANIB]
- IC50 [13]: 2600 nM

SMILES: CNC(=O)c1cc2c(Oc3ccc(NC(=S)NC(=O)Cc4ccccc4)cc3F)ccnc2cc1OC [TAS-115]
- IC50 [14]: 7.06 nM

SMILES: CCc1nc2c(C)cc(N3CCN(CC(=O)N4CC(O)C4)CC3)cn2c1N(C)c1nc(-c2ccc(F)cc2)c(C#N)s1 [ZIRITAXESTAT]
- bioavailability [15]: 34%
- clearance [16]: 11.5 mL/min/kg
